pEC50, pKd: −log10 of the molar value. Where two headings read alike, the source gives them in different places.
Assays:
[1] = molecular target: T1, huSTING (WT) (Homo sapiens (Human), UniProt Q86WV6, H232R); assay: Differential scanning fluorimetry (DSF), huSTING (WT); format: binding; details: read-out: DSF huSTING (WT) ΔTm (° C.)
Target sequence in this assay (Q86WV6 other isoform, or with tags, fused parts or gaps, stated change not applied): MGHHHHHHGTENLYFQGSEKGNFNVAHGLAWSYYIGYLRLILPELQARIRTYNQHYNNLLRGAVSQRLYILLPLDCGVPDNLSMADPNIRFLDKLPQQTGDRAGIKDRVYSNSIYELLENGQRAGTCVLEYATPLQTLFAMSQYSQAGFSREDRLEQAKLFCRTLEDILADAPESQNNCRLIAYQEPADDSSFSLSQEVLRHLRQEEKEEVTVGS

[2] = molecular target: T1, huSTING (WT); assay: THP-1 reporter cell line assay, THP-1-Dual KI-hSTING-R232 cells; format: cell-based; details: read-out: Cellular EC50 huSTING (WT)
Target sequence in this assay (Q86WV6 whole entry H232R): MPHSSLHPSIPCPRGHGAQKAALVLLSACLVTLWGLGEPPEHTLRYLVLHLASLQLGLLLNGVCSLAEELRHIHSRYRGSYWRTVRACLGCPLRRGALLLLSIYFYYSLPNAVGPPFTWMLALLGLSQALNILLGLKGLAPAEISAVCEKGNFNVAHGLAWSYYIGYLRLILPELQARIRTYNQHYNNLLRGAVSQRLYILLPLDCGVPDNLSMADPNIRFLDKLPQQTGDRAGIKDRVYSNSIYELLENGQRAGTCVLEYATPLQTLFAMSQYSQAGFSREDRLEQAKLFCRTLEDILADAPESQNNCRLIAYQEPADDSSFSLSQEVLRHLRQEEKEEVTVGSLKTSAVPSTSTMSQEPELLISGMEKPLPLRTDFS

[3] = molecular target: huSTING (HAQ) (Homo sapiens (Human), UniProt Q86WV6, G230A/H232R/R293Q/R71H); assay: THP-1 reporter cell line assay, THP-1 STING Lucia ISG cells; format: cell-based; details: THP-1 STING Lucia ISG cells, read-out: Cellular EC50 huSTING (HAQ)
huSTING (HAQ), sequence (Q86WV6 whole entry R71H/G230A/H232R/R293Q): as the sequence (Q86WV6 whole entry H232R) above, with R71H, G230A, R293Q counted along it

[4] = molecular target: T2, human STING (HAQ) (Homo sapiens, UniProt Q86WV6, G230A/H232R/R293Q); assay: biochemical; format: binding
T2 sequence (Q86WV6 whole entry G230A/H232R/R293Q, looked up): as the sequence (Q86WV6 whole entry H232R) above, with G230A, R293Q counted along it

[5] = molecular target: T2, human STING (HAQ); details: read-out: SPR (HAQ) KD; 25° C.
[6] = molecular target: T2, human STING (HAQ); assay: SPR (HAQ) 8° C.; format: binding; details: 50% occupancy as surrogate KD, read-out: SPR huSTING (HAQ) KD at 8° C.
Source text: (§1) Binding interactions of ligands with STING proteins were quantified using Surface Plasmon Resonance (SPR) with a minimally biotinylated STING protein immobilized on Streptavidin chip surface.
(§2) These were modified for compounds with longer residence times, so that curves could reach steady-state, or so that compound would be fully dissociated before the subsequent injection.
(§3) For single-cycle kinetic experiments, sensorgrams were fit to a two-step kinetic model in which two analyte molecules bind sequentially (Biacore T200 or S200 Evaluation Software).

[7] = molecular target: T1, huSTING (WT); assay: SPR (WT) 8° C.; format: binding; details: read-out: SPR huSTING (WT) KD at 8° C.
Source text: as §1, §2, §3
Target sequence in this assay (Q86WV6 other isoform, or with tags, fused parts or gaps, stated change not applied): as the sequence (Q86WV6 other isoform, or with tags, fused parts or gaps, stated change not applied) above

[8] = 1 μM protein, compound at 100 μM
[9] = modified method, top concentration 40 μM, pin tool, EnVision
[10] = compound 100 μM, protein concentration 2 μM

| Structure (SMILES) | ΔTm at 100 µM [1] [°C] | pEC50 [2] | pEC50 ([3]; 24 h, top concentration 50 μM) | DSF huSTING (HAQ) ΔTm (° C.) [4, 8] [°C] | pKd [5] | pKd [6] | pEC50 [3, 9] | pKd [7] | DSF huSTING (HAQ) ΔTm (° C.) [4, 10] [°C] |
| --- | --- | --- | --- | --- | --- | --- | --- | --- | --- |
| NC(=O)c1ccc(OCc2c(C(=O)O)sc3cccc(Cl)c23)c(Cl)c1 [Example 38, 3-((4-Carbamoyl-2-chlorophenoxy)methyl)-4-chlorobenzo[b]thiophene-2-carboxylic acid] | -1.4 | < 4.30 | < 4.30 | 6.02 | 4.79 |  |  |  |  |
| NC(=O)c1cc(Cl)c(OCc2c(C(=O)O)sc3cccc(Cl)c23)c(Cl)c1 [Example 40, 3-((4-Carbamoyl-2,6-dichlorophenoxy)methyl)-4-chlorobenzo[b]thiophene-2-carboxylic acid] | 3.66 | 4.40 | < 4.30 | 9.91 | 5.55 |  |  |  |  |
| NC(=O)c1ccc(OCc2c(C(=O)O)sc3cccc(Cl)c23)cn1 [Example 46, 3-(((6-Carbamoylpyridin-3-yl)oxy)methyl)-4-chlorobenzo[b]thiophene-2-carboxylic acid] | 1.77 | < 4.30 | < 4.30 | 7.26 | 5.01 |  |  |  |  |
| Nc1noc2cc(OCc3c(C(=O)O)sc4cccc(Cl)c34)ccc12 [Example 48, 3-(((3-Aminobenzo[d]isoxazol-6-yl)oxy)methyl)-4-chlorobenzo[b]thiophene-2-carboxylic acid] | -4.63 | < 4.30 | < 4.30 | 1.92 | 4.79 |  |  |  |  |
| NC(=O)c1ccc(OCc2c(C(=O)O)sc3cccc(F)c23)cc1Cl [Example 50, 3-((4-Carbamoyl-3-chlorophenoxy)methyl)-4-fluorobenzo[b]thiophene-2-carboxylic acid] | 0.02 | < 4.30 | < 4.30 | 5.11 | 4.68 |  |  |  |  |
| NC(=O)c1ccc(OCc2c(C(=O)O)sc3cccc(F)c23)cc1C(F)(F)F [Example 52, 3-((4-Carbamoyl-3-(trifluoromethyl)phenoxy)methyl)-4-fluorobenzo[b]thiophene-2-carboxylic acid] | -2.15 | < 4.30 | < 4.30 | −1.22 | 3.59 |  |  |  |  |
| Cc1cc(OCc2c(C(=O)O)sc3cccc(F)c23)ccc1C(N)=O [Example 54, 3-((4-Carbamoyl-3-methylphenoxy)methyl)-4-fluorobenzo[b]thiophene-2-carboxylic acid] | -1.28 | < 4.30 | < 4.30 | 2.56 | 4.29 |  |  |  |  |
| NC(=O)c1cc(F)c(OCc2c(C(=O)O)sc3cccc(F)c23)c(Br)c1 [Example 56, 3-((2-Bromo-4-carbamoyl-6-fluorophenoxy)methyl)-4-fluorobenzo[b]thiophene-2-carboxylic acid] | -1.29 | < 4.30 | < 4.30 | 4.48 | 4.54 |  |  |  |  |
| NC(=O)c1cc(F)c(OCc2c(C(=O)O)sc3cccc(F)c23)c(F)c1 [Example 57, 3-((4-Carbamoyl-2,6-difluorophenoxy)methyl)-4-fluorobenzo[b]thiophene-2-carboxylic acid] | 3.43 | < 4.30 | < 4.30 | 10.74 | 5.04 |  |  |  |  |
| NC(=O)c1ccc(OCc2c(C(=O)O)sc3cccc(F)c23)c(F)c1 [Example 59, 3-((4-carbamoyl-2-fluorophenoxy)methyl)-4-fluorobenzo[b]thiophene-2-carboxylic acid] | 0.54 | < 4.30 | < 4.30 | 7.31 | 4.82 |  |  |  |  |
| NC(=O)c1ccc(OCc2c(C(=O)O)sc3cccc(C4CC4)c23)cc1 [Example 61, 3-((4-Carbamoylphenoxy)methyl)-4-cyclopropylbenzo[b]thiophene-2-carboxylic acid] | 5.68 | < 4.30 | 4.40 | 14.62 | 6.08 |  |  |  |  |
| NC(=O)c1ccc(OCc2c(C(=O)O)sc3cccc(Cl)c23)cc1Br [Example 64, 3-((3-Bromo-4-carbamoylphenoxy)methyl)-4-chlorobenzo[b]thiophene-2-carboxylic acid] | 2.73 | < 4.30 | < 4.30 | 6.79 | 5.21 |  |  |  |  |
| NC(=O)c1cc(F)c(OCc2c(C(=O)O)sc3cccc(Cl)c23)c(Br)c1 [Example 71, 3-((2-Bromo-4-carbamoyl-6-fluorophenoxy)methyl)-4-chlorobenzo[b]thiophene-2-carboxylic acid] | 5.11 | 4.39 | 4.67 | 12.18 | 5.67 |  |  |  |  |
| NC(=O)c1ccc(CCc2c(C(=O)O)sc3cccc(F)c23)cc1 [Example 88, 3-(4-Carbamoylphenethyl)-4-fluorobenzo[b]thiophene-2-carboxylic acid] | -1.07 | < 4.30 | < 4.30 | 0.97 | 3.27 |  |  |  |  |
| COc1ncnc2sc(C(=O)O)c(COc3c(F)cc(C(N)=O)cc3F)c12 [Example 109, 5-((4-Carbamoyl-2,6-difluorophenoxy)methyl)-4-methoxythieno[2,3-d]pyrimidine-6-carboxylic acid] |  | < 4.40 |  |  |  | 3.80 | < 4.40 | 3.70 | 8.60 |
| COCc1cc(OCc2c(C(=O)O)sc3cccc(Cl)c23)ccc1C(N)=O [Example 113, 3-((4-Carbamoyl-3-(methoxymethyl)phenoxy)methyl)-4-chlorobenzo[b]thiophene-2-carboxylic acid] |  | < 4.40 |  |  |  | 4.28 | < 4.40 |  | 5.60 |
| NC(=O)c1cc(F)c(OCc2c(C(=O)O)sc3cncc(Cl)c23)c(F)c1 [Example 171, Lithium 3-((4-carbamoyl-2,6-difluorophenoxy)methyl)-4-chlorothieno[2,3-c]pyridine-2-carboxylate] |  | < 4.40 |  |  |  | 5.31 | < 4.40 |  | 9.33 |
| COc1nccc2sc(C(=O)O)c(COc3c(F)cc(C(N)=O)cc3CO)c12 [Example 172, 3-((4-Carbamoyl-2-fluoro-6-(hydroxymethyl)phenoxy)methyl)-4-methoxythieno[3,2-c]pyridine-2-carboxylic acid] |  | < 4.40 |  |  |  | 3.66 | < 4.40 |  | 0.56 |
